In patent US7939532B2, “Heterocyclyl pyridyl sulfonamide derivatives, their manufacture and use as pharmaceutical agents” (Hoffmann-La Roche Inc., priority 2006, dated 2011) one finds IC50 data, which are given here for 20 compounds.

pIC50: −log10 of the molar value. Structures can show the parent of a compound that is named as a salt.

The subject of this assay is HCT 116 cells (human colon carcinoma, ATCC-No. CCl-247). Put plainly: CellTiter-Glo Luminescent Cell Viability Assay in HCT 116 cells. It is filed as cell-based. As to conditions: HCT 116 cell viability, CellTiter-Glo (ATP luminescence), 5 days (120 h) incubation, 10 concentrations 30 μM to 0.0015 μM, triplicate. An excerpt:
CellTiter-Glo™ Assay in HCT 116 Cells
The CellTiter-Glo™ Luminescent Cell Viability Assay (Promega) is a homogeneous method of determining the number of viable cells in culture based on quantitation of the ATP present, which signals the presence of metabolically active cells.
HCT 116 cells (human colon carcinoma, ATCC-No. CCl-247) were cultivated in RPMI 1640 medium with GlutaMAX™ I (Invitrogen, Cat-No. 61870-010), 5% Fetal Calf Serum (FCS, Sigma Cat-No. F4135 (FBS)); 100 Units/ml penicillin/100 μg/ml streptomycin (=Pen/Strep from Invitrogen Cat. No. 15140). For the assay the cells were seeded in 384 well plates, 1000 cells per well, in the same medium. The next day the test compounds were added in various concentrations ranging from 30 μM to 0.0015 μM (10 concentrations, 1:3 diluted). After 5 days the CellTiter-Glo™ assay was done according to the instructions of the manufacturer (CellTiter-Glo™ Luminescent Cell Viability Assay, from Promega). In brief the cell-plate was equilibrated to room temperature for approximately 30 minutes and than the CellTiter-Glo™ reagent was added. The contents were carefully mixed for 15 minutes to induce cell lysis. After 45 minutes the luminescent signal was measured in Victor 2, (scanning multiwell spectrophotometer, Wallac).
• Medium: RPMI 1640 with GlutaMAX™ I (Invitrogen, Cat-Nr. 61870), 5% FCS (Sigma Cat.-No. F4135), Pen/Strep (Invitrogen, Cat No. 15140). • HCT116 (ATCC-No. CCl-247): 1000 cells in 60 μl per well of 384 well plate (Greiner 781098, μClear-plate white) • After seeding incubate plates 24 h at 37° C., 5% CO2 2nd. Day: Induction (Treatment with Compounds, 10 Concentrations):
In order to achieve a final concentration of 30 μM as highest concentration 3.5 μl of 10 mM compound stock solution were added directly to 163 μl media. Then step e) of the dilution procedure described below, was followed.
(ATP-based viability assays read luminescence as a measure of living cells.)
What is called pIC50 is −log10 of the IC50, conventionally taken in molar units. Lower therefore signals a large IC50. `O=C(NS(=O)(=O)c1ccc(N2CCN(c3ccccc3)CC2)nc1)c1ccc(F)cc1C(F)(F)F` [Example 1-18, 6-(4-Phenyl-piperazin-1-yl)-pyridine-3-sulfonic acid 4-fluoro-2-trifluoromethyl-benzoylamide; sodium salt] showed a pIC50 of 5.00 to 6.00.
With `O=C(NS(=O)(=O)c1ccc(N2CCN(c3ccccc3F)CC2)nc1)c1ccc(F)cc1C(F)(F)F` [Example 1-19, 6-[4-(2-Fluoro-phenyl)-piperazin-1-yl]-pyridine-3-sulfonic acid 4-fluoro-2-trifluoromethyl-benzoylamide; sodium salt], the pIC50 is 5.00 to 6.00.
With `O=C(NS(=O)(=O)c1ccc(N2CCC3(CC2)OCCCO3)nc1)c1ccc(Cl)cc1C(F)(F)F` [Example 1-2, 6-(1,5-Dioxa-9-aza-spiro[5.5]undec-9-yl)-pyridine-3-sulfonic acid 4-chloro-2-trifluoromethyl-benzoylamide; ammonium salt], the pIC50 was 5.37.
The value for `Cc1cccc(N2CCN(c3ccc(S(=O)(=O)NC(=O)c4ccc(F)cc4C(F)(F)F)cn3)CC2)c1` [Example 1-3, 6-(4-m-Tolyl-piperazin-1-yl)-pyridine-3-sulfonic acid 4-fluoro-2-trifluoromethyl-benzoylamide; sodium salt] was 5.00 to 6.00; that for `O=C(NS(=O)(=O)c1ccc(N2CCN(c3ccc(F)cc3)CC2)nc1)c1ccc(F)cc1C(F)(F)F` [Example 1-7, 6-[4-(4-Fluoro-phenyl)-piperazin-1-yl]-pyridine-3-sulfonic acid 4-fluoro-2-trifluoromethyl-benzoylamide; ammonium salt] was 5.00 to 6.00.
The value for `O=C(NS(=O)(=O)c1ccc(N2CCN(c3ccccn3)CC2)nc1)c1ccc(F)cc1C(F)(F)F` [Example 1-6, 6-(4-Pyridin-2-yl-piperazin-1-yl)-pyridine-3-sulfonic acid 4-fluoro-2-trifluoromethyl-benzoylamide; ammonium salt] was 5.00 to 6.00.
The figure for `COc1ccccc1N1CCN(c2ccc(S(=O)(=O)NC(=O)c3ccc(F)cc3Cl)cn2)CC1` [Example 1-14, 6-[4-(2-Methoxy-phenyl)-piperazin-1-yl]-pyridine-3-sulfonic acid 2-chloro-4-fluoro-benzoylamide; sodium salt] is 5.00 to 6.00.
The compound `O=C(NS(=O)(=O)c1ccc(N2CCN(c3ccccn3)CC2)nc1)c1ccc(Cl)cc1Cl` [Example 1-1, 6-(4-Pyridin-2-yl-piperazin-1-yl)-pyridine-3-sulfonic acid 2,4-dichloro-benzoylamide; ammonium salt] gave a pIC50 of 5.47.
The figure for `O=C(NS(=O)(=O)c1ccc(N2CCN(c3ccc(F)cc3)CC2)nc1)c1ccc(F)cc1Cl` [Example 1-17, 6-[4-(4-Fluoro-phenyl)-piperazin-1-yl]-pyridine-3-sulfonic acid 2-chloro-4-fluoro-benzoylamide; sodium salt] is 5.00 to 6.00.
`COc1cc(Cl)ccc1C(=O)NS(=O)(=O)c1ccc(N2CCN(c3ccccc3)CC2)nc1` [Example 1-4, 6-(4-Phenyl-piperazin-1-yl)-pyridine-3-sulfonic acid 4-chloro-2-methoxy-benzoylamide] showed a pIC50 of 5.00 to 6.00.
The value for `COc1ccccc1N1CCN(c2ccc(S(=O)(=O)NC(=O)c3ccc(Cl)cc3C(F)(F)F)cn2)CC1` [Example 1-13, 6-[4-(2-Methoxy-phenyl)-piperazin-1-yl]-pyridine-3-sulfonic acid 4-chloro-2-trifluoromethyl-benzoylamide] was 5.00 to 6.00.
The value for `O=C(NS(=O)(=O)c1ccc(N2CCN(c3ccccc3)CC2)nc1)c1ccc(Cl)cc1Cl` [Example 1-15, 6-(4-Phenyl-piperazin-1-yl)-pyridine-3-sulfonic acid 2,4-dichloro-benzoylamide; sodium salt] was 5.00 to 6.00; that for `O=C(NS(=O)(=O)c1ccc(N2CCN(c3ccc(F)cc3)CC2)nc1)c1ccc(Cl)cc1Cl` [Example 1-16, 6-[4-(4-Fluoro-phenyl)-piperazin-1-yl]-pyridine-3-sulfonic acid 2,4-dichloro-benzoylamide; sodium salt] was 5.00 to 6.00; that for `O=C(NS(=O)(=O)c1ccc(N2CCN(c3ccc(F)cc3F)CC2)nc1)c1ccc(F)cc1C(F)(F)F` [Example 1-20, 6-[4-(2,4-Difluoro-phenyl)-piperazin-1-yl]-pyridine-3-sulfonic acid 4-fluoro-2-trifluoromethyl-benzoylamide; sodium salt] was 5.00 to 6.00.
The compound `COc1cc(Cl)ccc1C(=O)NS(=O)(=O)c1ccc(N2CCN(c3ccc(F)cc3)CC2)nc1` [Example 1-11, 6-[4-(4-Fluoro-phenyl)-piperazin-1-yl]-pyridine-3-sulfonic acid 4-chloro-2-methoxy-benzoylamide] gave a pIC50 of 5.90.
`COc1ccc(N2CCN(c3ccc(S(=O)(=O)NC(=O)c4ccc(Cl)cc4C(F)(F)F)cn3)CC2)cc1` [Example 1-9, 6-[4-(4-Methoxy-phenyl)-piperazin-1-yl]-pyridine-3-sulfonic acid 4-chloro-2-trifluoromethyl-benzoylamide]: the pIC50 was 5.00 to 6.00.
The value for `COc1cc(Cl)ccc1C(=O)NS(=O)(=O)c1ccc(N2CCN(c3ccccc3OC)CC2)nc1` [Example 1-8, 6-[4-(2-Methoxy-phenyl)-piperazin-1-yl]-pyridine-3-sulfonic acid 4-chloro-2-methoxy-benzoylamide; ammonium salt] was 5.00 to 6.00.
The compound `COc1cc(Cl)ccc1C(=O)NS(=O)(=O)c1ccc(N2CCC3(CC2)OCCCO3)nc1` [Example 1-12, 6-(1,5-Dioxa-9-aza-spiro[5.5]undec-9-yl)-pyridine-3-sulfonic acid 4-chloro-2-methoxy-benzoylamide] gave a pIC50 of 5.00 to 6.00.
The figure for `O=C(NS(=O)(=O)c1ccc(N2CCN(c3ccccc3)CC2)nc1)c1ccc(F)cc1Cl` [Example 1-10, 6-(4-Phenyl-piperazin-1-yl)-pyridine-3-sulfonic acid 2-chloro-4-fluoro-benzoylamide] is 5.00 to 6.00.
Turning to `O=C(NS(=O)(=O)c1ccc(N2CCN(c3ccccn3)CC2)nc1)c1ccc(F)cc1Cl` [Example 1-5, 6-(4-Pyridin-2-yl-piperazin-1-yl)-pyridine-3-sulfonic acid 2-chloro-4-fluoro-benzoylamide; ammonium salt], the pIC50 was 5.00 to 6.00.
